From patent US6121457A, “Compositions and methods using novel substituted imidazolium lipids” (Megabios Corporation, priority 1998, dated 2000)

What was measured:
[1] = tested on: CAT protein in lungs; experiment: IV gene transfer in mice: lung CAT reporter expression (plasmid p4119) by ELISA; format: in vivo, ICR female mice; conditions: for mean CAT expression level (CAT ELISA): formulated with cholesterol and plasmid p4119, IV, five mice each, value followed by +/- spread
Procedure: This example provides an evaluation of the cationic lipid prepared in Example 1.
Two mice studies have been performed for the evaluation of cationic lipids of the present invention, in comparison with DOTIM (see, Liu, et al, Nature Biotechnology 15:167-173 (1997)). In brief, the lipid combinations were tested as carriers for gene transfer by intravenous delivery in ICR female mice (25 g), and expression was determined using the plasmid p4119 containing the CAT reporter gene under the control of the HCMV promoter. The lipids were dissolved in a mixture of chloroform and methanol (1:1). Lipid films of cationic and neutral lipid (either cholesterol or DLPE) at a 1:1 molar ratio were formed with a rotary evaporator. The films were hydrated with 5% dextrose in water (D5W) at room temperature and extruded through a series of membranes having pore sizes of 400 nm, 200 nm, and 50 nm.
DNA-liposome complexes were prepared at a 1:6 DNA:cationic lipid ratio (mg DNA per μmole cationic lipid) by adding the DNA, in a solution at 0.625 mg/mL concentration in D5W to the solution of liposomes, in an equal volume, with constant stirring, using a Hamilton Dilutor 540B (Hamilton, Reno, Nev.). DOTIM:cholesterol was used at a 1:6 DNA:cationic lipid ratio. The DNA solution was 0.3125 mg/mL DNA in D5W. The resulting complexes were sized using a Submicron Particle Sizer 370 (Nicomp, Santa Barbara, Calif.). Zeta potential was determined by a Zeta Plus, Zeta Potential Analyzer (Brookhaven Instruments Corp.). A total of 5 mice were tested per group. A dose of 62.5 μg p4119 plasmid DNA in 200 μL D5W was injected by tail vein per mouse. The lungs were harvested after 24 hours and assayed for CAT protein by ELISA assay. […] The upper organic phase was then transferred into scintillation vials containing 5 mL of Ready Safe Liquid Scintillation Cocktail (Beckman, Fullerton, Calif.). Samples were counted for 1 min each. […]

[2] = tested on: CAT reporter protein in lung and serum; experiment: IV delivery in rabbits: CAT ELISA, lung and serum; format: in vivo; conditions: Rabbit #4, lipid only, highest vol. IV, about 24 h
Procedure: This example provides an evaluation of Compound 1 as a suitable lipid in DNA:lipid complexes for transfection in rabbits.
(§1) Pilot studies were conducted to assess the suitability of rabbits as a development model for delivery of lipid:DNA complexes. The study confirmed that rabbits offer the ability to express transfected genes as well as display some anticipated toxicity endpoints.
(§2) A 2 mL blood sample is collected immediately prior to dose delivery for serum collection and another 2 mL for a CBC/clinical chemistry screen. Sufficient blood is also collected at necropsy to perform a CBC and clinical chemistry screen and preserve serum (minimum of 8 mL).
(§3) Approximately 24 hours after dosing the animals are euthanized using a barbiturate overdose. Following euthanasia, body weights are determined and an examination is made for the presence of pleural fluid. Any fluid present is harvested while avoiding blood contamination. Total protein and albumin levels are determined on the pleural fluid.
(§4) Tissues are collected and preserved as follows: lung tissue (8 vials in liquid nitrogen, 2 lobes infused with formalin, and optionally 2 Whirlpaks® in dry ice); liver tissue (multiple sites in formalin); kidney tissue (multiple sites in formalin); spleen tissue (multiple sites in formalin); heart tissue (multiple sites in formalin); and multiple serum samples (6 mL minimum in dry ice).

[3] = IV toleration and necropsy observations in rabbits; format: in vivo, rabbit; conditions: just the lipid, about 24 h
Procedure: as §1, §2, §3, §4

Compound: CCCCCCCC/C=C\CCCCCCCC[N+]1=C(CCCCCCC/C=C\CCCCCCCC)N(CCO)CC1 [Compound 1]
- lung CAT expression / in vivo activity, in words ([1]; IV, mice, both protocols): retained the in vivo activity of DOTIM
- mean CAT expression level (CAT ELISA) [1]: 306.09 pg/mg
- CAT ELISA, lung [2]: 0 pg/mg
- CAT ELISA, serum [2]: 0 pg/mL
- airway foam or excessive pleural fluid [3]: no airway foam or excessive pleural fluid was noted
- lesions [3]: No lesions were noted
- lung appearance at necropsy [3]: diffusely red lungs which failed to collapse

Compound: CCCCCCCCCCCCCCCCCC[N+]1=C(CCCCCCCCCCCCCCCCC)N(CCO)CC1 [Formula III (Compound 2)]
- mean CAT expression level (CAT ELISA) [1]: 853.20 pg/mg
